Species: Rattus norvegicus
Assay: Open TG-GATES - Regimen: Single
Type: toxicity, organism-based, Sprague-Dawley
Set-up: regimen Single, gender Male, age 6 weeks
Conditions: in vivo, po, 10 mg/kg, route gavage, dose level Middle; for APTT / Bas / Eos / Fbg / Hb / Ht / Lym / MCH / MCHC / MCV / Mono / Neu / PT / Plat / RBC / Ret / WBC: tissue Blood; for KIDNEY_L / KIDNEY_R / KIDNEY_TOTAL: tissue Kidney; for LIVER: tissue Liver; for A/G / ALP / ALT / AST / BUN / CRE / Ca / Cl / DBIL / GLC / IP / K / LDH / Na / PL / RALB / TBIL / TC / TG / TP / gamma-GTP: tissue Plasma

C[C@H]1C(=O)O[C@@H]2CCN3CC=C(COC(=O)[C@](C)(O)[C@]1(C)O)[C@H]23 [MONOCROTALINE]
TERMINAL_BW (3 h): 213.5 g
APTT (3 h): 19.4 s
Bas (3 h): 0%
Eos (3 h): 1.4%
Fbg (3 h): 303.6 mg/dL
Hb (3 h): 12.9 g/dL
Ht (3 h): 37.7%
Lym (3 h): 77.2%
MCH (3 h): 21.5 pg
MCHC (3 h): 34.2%
MCV (3 h): 62.9 fL
Mono (3 h): 2.2%
Neu (3 h): 19%
PT (3 h): 16.5 s
Plat (3 h): 122.4 x10_4/uL
RBC (3 h): 600.4 x10_4/ul
Ret (3 h): 8.6%
WBC (3 h): 80.3 x10_2/uL
KIDNEY_L (3 h): 1 g
KIDNEY_R (3 h): 0.9 g
KIDNEY_TOTAL (3 h): 1.9 g
LIVER (3 h): 9.8 g
A/G (3 h): 1.3
ALP (3 h): 1633.4 IU/L
ALT (3 h): 44.4 IU/L
AST (3 h): 72.8 IU/L
BUN (3 h): 14.2 mg/dL
CRE (3 h): 0.1 mg/dL
Ca (3 h): 10.8 mg/dL
Cl (3 h): 105.6 meq/L
DBIL (3 h): 0.002 mg/dL
GLC (3 h): 171.8 mg/dL
IP (3 h): 8.9 mg/dL
K (3 h): 4.3 meq/L
LDH (3 h): 207.6 IU/L
Na (3 h): 142.6 meq/L
PL (3 h): 139 mg/dL
RALB (3 h): 3 g/dL
TBIL (3 h): 0.012 mg/dL
TC (3 h): 80 mg/dL
TG (3 h): 73.2 mg/dL
TP (3 h): 5.3 g/dL
gamma-GTP (3 h): 1 IU/L
TERMINAL_BW (6 h): 207.4 g
APTT (6 h): 21.7 s
Bas (6 h): 0%
Eos (6 h): 1.2%
Fbg (6 h): 303.2 mg/dL
Hb (6 h): 13.2 g/dL
Ht (6 h): 38.9%
Lym (6 h): 72.4%
MCH (6 h): 20.9 pg
MCHC (6 h): 34%
MCV (6 h): 61.6 fL
Mono (6 h): 3.2%
Neu (6 h): 22%
PT (6 h): 16.3 s
Plat (6 h): 121.5 x10_4/uL
RBC (6 h): 632 x10_4/ul
Ret (6 h): 8.4%
WBC (6 h): 93.8 x10_2/uL
KIDNEY_L (6 h): 1 g
KIDNEY_R (6 h): 1 g
KIDNEY_TOTAL (6 h): 1.9 g
LIVER (6 h): 9.1 g
A/G (6 h): 1.3
ALP (6 h): 1403 IU/L
ALT (6 h): 36.6 IU/L
AST (6 h): 70.8 IU/L
BUN (6 h): 11.2 mg/dL
CRE (6 h): 0.1 mg/dL
Ca (6 h): 10.5 mg/dL
Cl (6 h): 107 meq/L
DBIL (6 h): 0.004 mg/dL
GLC (6 h): 179.6 mg/dL
IP (6 h): 9.5 mg/dL
K (6 h): 4.3 meq/L
LDH (6 h): 222.6 IU/L
Na (6 h): 141.8 meq/L
PL (6 h): 129 mg/dL
RALB (6 h): 3 g/dL
TBIL (6 h): 0.016 mg/dL
TC (6 h): 72.2 mg/dL
TG (6 h): 53.2 mg/dL
TP (6 h): 5.3 g/dL
gamma-GTP (6 h): 1 IU/L
TERMINAL_BW (9 h): 203.7 g
APTT (9 h): 20 s
Bas (9 h): 0%
Eos (9 h): 1%
Fbg (9 h): 294.4 mg/dL
Hb (9 h): 13.1 g/dL
Ht (9 h): 38.6%
Lym (9 h): 75.4%
MCH (9 h): 21 pg
MCHC (9 h): 34.1%
MCV (9 h): 61.7 fL
Mono (9 h): 2.8%
Neu (9 h): 20.2%
PT (9 h): 16.5 s
Plat (9 h): 119.6 x10_4/uL
RBC (9 h): 626 x10_4/ul
Ret (9 h): 8.8%
WBC (9 h): 71.7 x10_2/uL
KIDNEY_L (9 h): 1 g
KIDNEY_R (9 h): 1 g
KIDNEY_TOTAL (9 h): 2 g
LIVER (9 h): 9 g
A/G (9 h): 1.3
ALP (9 h): 1365.4 IU/L
ALT (9 h): 33.6 IU/L
AST (9 h): 62.8 IU/L
BUN (9 h): 11.4 mg/dL
CRE (9 h): 0.1 mg/dL
Ca (9 h): 10.6 mg/dL
Cl (9 h): 106.2 meq/L
DBIL (9 h): 0.006 mg/dL
GLC (9 h): 180.2 mg/dL
IP (9 h): 9.7 mg/dL
K (9 h): 4.2 meq/L
LDH (9 h): 144 IU/L
Na (9 h): 142.2 meq/L
PL (9 h): 132.8 mg/dL
RALB (9 h): 3.1 g/dL
TBIL (9 h): 0.024 mg/dL
TC (9 h): 73.2 mg/dL
TG (9 h): 54.8 mg/dL
TP (9 h): 5.4 g/dL
gamma-GTP (9 h): 1.2 IU/L
TERMINAL_BW (24 h): 217 g
APTT (24 h): 21.3 s
Bas (24 h): 0%
Eos (24 h): 0.8%
Fbg (24 h): 309.8 mg/dL
Hb (24 h): 13.5 g/dL
Ht (24 h): 39.6%
Lym (24 h): 80.8%
MCH (24 h): 21.1 pg
MCHC (24 h): 34%
MCV (24 h): 61.9 fL
Mono (24 h): 2.8%
Neu (24 h): 15.2%
PT (24 h): 16.2 s
Plat (24 h): 117.4 x10_4/uL
RBC (24 h): 639.8 x10_4/ul
Ret (24 h): 7.1%
WBC (24 h): 75.2 x10_2/uL
KIDNEY_L (24 h): 1 g
KIDNEY_R (24 h): 1 g
KIDNEY_TOTAL (24 h): 2 g
LIVER (24 h): 10 g
A/G (24 h): 1.3
ALP (24 h): 1872.8 IU/L
ALT (24 h): 45.2 IU/L
AST (24 h): 75.4 IU/L
BUN (24 h): 17 mg/dL
CRE (24 h): 0.1 mg/dL
Ca (24 h): 10.4 mg/dL
Cl (24 h): 106.6 meq/L
DBIL (24 h): 0.002 mg/dL
GLC (24 h): 180.8 mg/dL
IP (24 h): 6.9 mg/dL
K (24 h): 4.3 meq/L
LDH (24 h): 235.8 IU/L
Na (24 h): 142.2 meq/L
PL (24 h): 153 mg/dL
RALB (24 h): 3.1 g/dL
TBIL (24 h): 0.006 mg/dL
TC (24 h): 79.4 mg/dL
TG (24 h): 114.6 mg/dL
TP (24 h): 5.5 g/dL
gamma-GTP (24 h): 0.8 IU/L

Source: ChEMBL document CHEMBL3885861, “Open TG-GATES”
